This is an account of results in publication PMC8772772, “Enantioselective Synthesis and Pharmacological Evaluation of Aza-CGP37157–Lipoic Acid Hybrids for the Treatment of Alzheimer’s Disease” (Antioxidants, 2022).

Molecules are shown by their SMILES. Where “and” joins values, the source holds several entries; their conditions need not be identical. Equal entries are not always repeated.

Test [1] is described as follows: DPPH reduction assay, antioxidant capacity. Particulars: DPPH 100 µM, 30 min, mean ± SEM; for DPPH Scavenging at 100 µM, %: compound 100 µM; for DPPH Scavenging at 1mM, %: compound 1 mM. Here is the method: Antioxidant capacity was evaluated by using described procedure slightly modified. Compounds (0.1 and 1 mM, final concentration) were diluted in assay media (EtOH/H2O, 70:30) and mixed with 100 μL of DPPH (SigmaAldrich, D9132, Madrid, Spain) solution (100 μM final concentration) in a clear 96-multiwell plate. Final solution was kept in dark for 30 min, and absorbance of DPPH was measured in a SpectroStar Nano plate-reader (BMG Labtech, Ortenberg, Germany) in duplicate at […]. All experiments included a blank (assay media), control (DPPH 100 μM) and a positive control (ascorbic acid, 100 μM). Data were evaluated as % absorbance (Abs) reduction of control after subtracting blank absorbance. % DPPH reduction = [100 − ((Abssample − Absblank) × 100]/Abscontrol
Initially, we evaluated the free-radical-scavenging capacity of derivatives 7a–d in the DPPH assay, based on the capacity of the tested derivatives to react with the 2,2-diphenyl-1-picrylhydracil radical to generate a non-radical derivate. Hybrid derivatives 7a–d were evaluated at two different concentrations (0.1 and 1 mM), considering the activities of previously reported racemic derivatives. […] Ascorbic acid was used as a positive control, and CGP37157, rac-3a and (rac,R)-3b were included as references. […] Those results are similar to those obtained for racemic mixtures 3a and 3b and a mixture of (S,R)-7b and (R,R)-7d obtained from rac-3 and R-lipoic acid.
(In general: Loss of DPPH colour is used to gauge radical scavenging.)

The subject of test [2] is SH-SY5Y neuroblastoma cells. Briefly: Neuroprotection against rotenone/oligomycin A oxidative stress in SH-SY5Y cells (MTT). It is filed as cell-based, human. Particulars: compound 1 μM 24 h, then compound + R/O (30/10 μM) 24 h; for % Survival: basal = 100, R/O alone 53.4. Here is the method: (§1) Human neuroblastoma SH-SY5Y cells were plated in 96-well clear multi-well plates (6 × 10^4 cells/well). The potential neuroprotective activity of compounds against OS was evaluated using the rotenone (30 μM) (SigmaAldrich, R8875) and oligomycin A (10 μM) (SigmaAldrich, 75351) (R/O) toxic mixture. Neuroprotection activity against Tau hyperphosphorylation was evaluated by using the okadaic acid (20 nM) model. Cells were pre-incubated with each compound (1 µM) for 24 h, and then treatments were removed and cells were incubated with compounds (1 µM) in the presence the corresponding toxic for additional 24 h. At the end of the experiments, viability was determined by the MTT method. Data were normalized from cell death induced by the toxic stimuli (considered as 100% cell death). Then, the protection percentages were calculated by subtracting from the death induced by toxic stimuli, the death in the presence of the compound.
(§2) The tetrazolium ring of MTT can be cleaved by active dehydrogenases to produce a formazan precipitate. At the end of the experiments, MTT (SigmaAldrich, M2003) stock solution was added to each well to achieve a final concentration of 0.5 mg/mL. Cells were incubated for 2 h. Thereafter, culture media was removed, and DMSO was added to each well to dissolve the formazan precipitate. Finally, absorbance was measured in a microplate reader (SPECTROstar nano, BMG Labtech) at 570 nm. Absorbance obtained in basal conditions was considered as 100% cell viability.
Thus, we selected a pre-incubation protocol to evaluate their potential neuroprotective capacity based on the NRF2-induction activity and direct antioxidant effect. Compound pre-incubation would induce the expression of antioxidant enzymes regulated by the phase II antioxidant response, thus promoting cells’ survival. The co-incubation period would also evaluate their capacity to trap free radicals produced by intoxicated mitochondria. SH-SY5Y neuroblastoma cells were treated with compounds (1 µM) during 24 h, and then cells were co-incubated with the corresponding compound at the same concentration and the R/O combination (30/10 µM) for additional 24 h. Melatonin, a well-known antioxidant natural neurohormone, was included as a positive control (1 µM). Previously reported racemic derivatives (rac-3a and (rac,R)-3b) and their precursors ((±)-6, R-6 and S-6) were included for comparative purposes at the same concentration.

The subject of test [3] is SH-SY5Y neuroblastoma cells. Briefly: Neuroprotection against okadaic acid hyperphosphorylation in SH-SY5Y cells (MTT). It is filed as cell-based, human. Particulars: for % Survival / % Protection: compound 1 μM 24 h, then compound + OA 24 h; for % Survival: basal = 100, OA alone 54.7; for % Protection: n.p = compound does not protect cells. The method, then: as §1, §2
Considering these precedents, we envisaged the evaluation of our compounds in a hyperphosphorylation toxicity model induced by okadaic acid (OA), a protein phosphatase 2A inhibitor [58, 59]. This inhibition causes an imbalance between kinase and phosphatase action, leading to hyperphosphorylation of proteins, in particular, Tau. Thus, treatment of SH-SY5Y neuroblastoma cells with OA is a well-stablished model of Tau hyperphosphorylation. Similarly, to the method used for the OS model, we selected a pre-incubation/co-incubation protocol to evaluate the potential neuroprotection capacity related to the NRF2 induction/antioxidant properties of the compounds. Cells were treated with compounds (±)-6, R-6, S-6 or 7a–d (1 µM) during 24 h; thereafter, cells were co-treated with compounds (1 µM) and OA (20 nM) for a further 24 h. Melatonin was also included as a positive control. Finally, cellular viability was evaluated by the MTT method. […] Finally, the (R,S)-7c diastereomer was not able to afford any protection, a result that might be in line with its low NRF2 induction capacity.

In a further test the test system is NRF2. The test is described as follows: NRF2 nuclear localization, immunocytochemistry in AREc32 cells. The test is classed as cell-based. Particulars: 30 μM, 2 h, vs basal. The method, then:
AREc32 cells were plated in 24 multi-well plates on poly-D-Lysine-coated crystal slides (4 × 10^4 cells/well). Cells were treated with compounds 7a or 7b (30 µM) for 2 h and fixed by treatment with 4% paraformaldehyde solution in PBS (10 min). After 3 washings with PBS every 5 min, cells were permeabilized with 0.1% Triton X-100 solution for five min, washed 3 times with PBS (5 min) and incubated overnight with primary antibody anti-NRF2 (1:50, A-10, sc-365949, Santa Cruz Biotechnology, Dallas, TX, USA). Thereafter, cells were washed with PBS (3×, 5 min) and incubated with secondary antibody (1:500, 1 h). Finally, nuclei were stained with 5 µg/mL PBS solution of Hoechst 33342 (Invitrogen, Madrid, Spain) during the second wash. Finally, slides were mounted on coverslips (glycerol–PBS (1:1 v/v)), and images were obtained in a confocal microscope (TCS SPE, Leica, Wetzlar, Germany).
To obtain deeper insight into the mechanism of action of compounds 7, we evaluated their potential capacity to induce NRF2 nuclear localization and the activation of the phase II response. As previously described, NRF2 is sequestered at the cytoplasm by its repressor protein KEAP1, which mediates its proteasomal degradation. […] Thus, we firstly evaluated the capacity of compounds 7a and 7b to induce NRF2 nuclear localization as part of their mechanism of action. […]

Consider `O=C1CN(CCOC(=O)CCCC[C@@H]2CCSS2)[C@@H](c2ccccc2Cl)c2cc(Cl)ccc2N1` [(R,R)-7d, 2-((R)-7-Chloro-5-(2-chlorophenyl)-2-oxo-1,2,3,5-tetrahydro-4H-benzo[e][1,4]diazepin-4-yl)ethyl 5-((R)-1,2-dithiolan-3-yl)pentanoate], for which, in test [1], the “DPPH Scavenging at 100 µM, %” value turned out to be 8.66 ± 3.0% and the “DPPH Scavenging at 1mM, %” value amounted to 23.3 ± 3.5%. Moreover, in test [2], the “% Protection” value is listed as 50.7% and the “% Survival” value is on record as 77.6 ± 4.4%. In addition, in test [3] (OA model, 1 µM), the “neuroprotective capacity relative to (S,R)-7b, folds less potent” value is given as 2 folds. In addition, in test [3], the “% Survival” value is given as 63.3 ± 8.7% and the “% Protection” value turned out to be 21%.

With `O=C1CN(CCOC(=O)CCCC[C@@H]2CCSS2)[C@H](c2ccccc2Cl)c2cc(Cl)ccc2N1` [(R,S)-7c, 2-((S)-7-Chloro-5-(2-chlorophenyl)-2-oxo-1,2,3,5-tetrahydro-4H-benzo[e][1,4]diazepin-4-yl)ethyl 5-((R)-1,2-dithiolan-3-yl)pentanoate], in test [1], the “DPPH Scavenging at 100 µM, %” value was 13.6 ± 3.8%; the “DPPH Scavenging at 1mM, %” value is 35.9% and 35.9 ± 1.9%. In addition, in test [2], the “% Protection” value was 47.2% and the “% Survival” value stood at 76.1 ± 2.9%. In test [3], the “% Survival” value is 50.7 ± 15.6%; the “% Protection” value is “not protective and n.p”.

As for `O=C1CN(CCOC(=O)CCCC[C@H]2CCSS2)[C@@H](c2ccccc2Cl)c2cc(Cl)ccc2N1` [(S,R)-7b, 2-((R)-7-Chloro-5-(2-chlorophenyl)-2-oxo-1,2,3,5-tetrahydro-4H-benzo[e][1,4]diazepin-4-yl)ethyl 5-((S)-1,2-dithiolan-3-yl)pentanoate], in test [1], the “DPPH Scavenging at 100 µM, %” value was 8.46 ± 3.8% and the “DPPH Scavenging at 1mM, %” value is 32.0 ± 1.7%. For the same compound, the NRF2 nuclear localization entry in the test with NRF2 was “predominantly nuclear localization of NRF2”. In addition, in test [2], the “% Protection” value is 61.1% and the “% Survival” value is on record as 81.0 ± 4.7%. Also, in test [3], the “% Survival” value was 70.6 ± 10.3%; the “% Protection” value is 41.9% and 40.2%.

Take `O=C1CN(CCOC(=O)CCCC[C@H]2CCSS2)[C@H](c2ccccc2Cl)c2cc(Cl)ccc2N1` [(S,S)-7a, 2-((S)-7-Chloro-5-(2-chlorophenyl)-2-oxo-1,2,3,5-tetrahydro-4H-benzo[e][1,4]diazepin-4-yl)ethyl 5-((S)-1,2-dithiolan-3-yl)pentanoate]: in test [1], the “DPPH Scavenging at 100 µM, %” value worked out at 10.9 ± 3.5% and the “DPPH Scavenging at 1mM, %” value amounted to 30.3 ± 1.6%. Besides, in the test on NRF2, the NRF2 nuclear localization entry was “predominantly nuclear localization of NRF2”. In test [2], the “% Protection” value is recorded as 43.4% and the “% Survival” value was found to be 74.8 ± 3.2%. In test [3], the “% Survival” value is 63.2 ± 7.6% and the “% Protection” value was determined as 21.2%.
